{"source": "patent US20260248766A1", "about": "“GLUCOKINASE ACTIVATOR FOR COGNITIVE DISORDERS AND NEURODEGENERATIVE DISEASES” (HUA MEDICINE (SHANGHAI) LTD., priority 2023, published 2026)", "type_in_all_cases": "in vivo, rat", "key": {"[1]": {"system": "ionotropic glutamate receptor subunit GluN2A", "test": "Western blot of GluN2A in hippocampus of GK rats", "details": "hippocampus of GK rats after long-term treatment; FIG. 11", "description": "(§1) The tissue sampling, protein extraction and quantification, preparation of the denaturated protein samples, and protein gel electrophoresis were completed successively using the steps (I) to (IV) of the above example 2.\n(§2) Then, the gel obtained from the electrophoresis was used for membrane transfer. Biomarkers GluN2A and GluN2B were transferred to a membrane using a wet transfer method. The membrane was assembled in the following order: negative electrode-sponge-filter paper-gel-PVDF membrane-filter paper-sponge-positive electrode. The membrane transfer was performed at a constant voltage of 100 V in an ice bath for 70 minutes.\n(§3) After the membrane transfer was completed, the PVDF membranes were blocked with BSA or non-fat milk (GluN2A and GluN2B membranes were blocked with BSA, and GAPDH membrane was blocked with non-fat milk), respectively, at room temperature for 1 hour. […] The eluted PVDF membranes were scanned using an electrochemiluminescence (ECL) method with a contact-based non-destructive quantitative imaging instrument (E-blot) to give a western blot image.\n(§4) Calculation of the relative expression level of a protein: The western blot images were quantified using an image processing software ImageJ, and the gray value of a target band was measured and used to characterize the protein expression level of the target band. […]"}, "GK rats [2]": {"system": "GK rats", "test": "Fasting blood glucose in GK rats under long-term treatment", "details": "8 mg/kg by gavage twice daily from six weeks of age, tested at weeks 6, 8, 12, 16, 20, 29, 31, FIG. 1", "description": "Goto-Kakizaki (GK) rats are a non-obese, spontaneously occurring type 2 diabetes rat model obtained through repeated inbreeding of Wistar rats with glucose tolerance at the upper limit over several generations. […] The hippocampus is a key functional brain region regulating learning and memory abilities. Due to the presence of progressive diabetes symptoms, typical neurodegenerative diseases, and memory deficits, GK rats can be used to evaluate the effects of a drug on preventing memory decline.\n(§5) GK rats were randomly divided into the following treatment groups: a GK rat-solvent treatment group (n=9) and a GK rat-Dorzagliatin (8 mg/kg) treatment group (n=8). Age-matched Wistar rats were used as the normal control group, i.e., the Wistar rat-solvent group (n=9). The treatment began at six weeks of age. The rats were administered either the solvent or Dorzagliatin by gavage twice daily, morning and evening. Peripheral blood was collected multiple times from the animals throughout the growth cycle, and the fasting blood glucose levels of the animals were tested (the fasting blood glucose levels of the three groups of rats were tested and analyzed at weeks 6, 8, 12, 16, 20, 29, and 31)."}, "GK rats [3]": {"system": "GK rats", "test": "Morris water maze spatial memory test (probe test) in GK rats", "details": "8 mg/kg by gavage twice daily, about 27 weeks of treatment (33 weeks old), 1 minute probe test", "protocol": "as §5\nThe Morris water maze test is a commonly used behavioral method to assess the spatial memory, working memory, and spatial discrimination abilities of rodents. […]\nPreparation of the experimental environment: The laboratory environment was kept quiet. […] During the test, the latent period of escape, swimming path (distance), speed, and quadrant preference of a rat were recorded using the ANY-maze system. […]\nSpatial memory test (probe test): The spatial memory test was performed 24 hours after the end of the training phase. […] The time spent in the original platform quadrant and the swimming distances were recorded, and the data of each group of animals were statistically analyzed."}, "[4]": {"system": "glucose transporter 1 (GLUT1)", "test": "Western blot of GLUT1 in hippocampus of GK rats", "details": "hippocampus of GK rats after long-term treatment; FIG. 8", "description": "as §1\n(§6) Then, the gel obtained from the electrophoresis was used for membrane transfer. Biomarkers GLUT1, GLUT3, and GAPDH were transferred to a membrane using a semi-dry transfer method. The membrane was assembled in the following order: negative electrode-filter paper-gel-PVDF membrane-filter paper-positive electrode. The membrane transfer was performed at a constant current of 0.2 A at room temperature for 65 minutes.\n(§7) After the membrane transfer was completed, the PVDF membranes (GLUT1, GLUT3, GAPDH) were blocked with non-fat milk at room temperature for 1 hour.\n(§8) Calculation of the relative expression level of a protein: The western blot images were quantified using an image processing software ImageJ, and the gray value of a target band was measured and used to characterize the protein expression level of the target band. The gray value of a target protein was divided by the gray value of the internal reference protein GAPDH to perform normalization, which characterized the relative expression level of the target band. Statistical analysis was performed on the normalized value of each target band."}, "[5]": {"system": "ionotropic glutamate receptor subunit GluN2B", "test": "Western blot of GluN2B in hippocampus of GK rats", "details": "hippocampus of GK rats after long-term treatment; FIG. 12", "description": "as §1, §2, §3, §4"}, "[6]": {"system": "glucose transporter 3 (GLUT3)", "test": "Western blot of GLUT3 in hippocampus of GK rats", "details": "hippocampus of GK rats after long-term treatment; FIG. 9", "description": "as §1, §6, §7, §8"}, "[7]": {"system": "insulin receptor isoform IR-B protein", "test": "Western blot of IR-B protein in hippocampus of GK rats", "details": "hippocampus of GK rats after 37 weeks of treatment (43 weeks old); FIG. 6", "protocol": "(§9) GK rats were euthanized after 37 weeks of treatment, i.e., when the rats were 43 weeks old, and hippocampal tissue of the GK rats was collected for western blotting to detect the protein expression levels of the biomarkers.\n(§10) Animals under anesthesia were rapidly decapitated and their brains were removed in a hypothermic environment. The hippocampal tissue was separated on ice, placed in cryovials, flash-frozen in liquid nitrogen, and then stored in a −80° C. freezer for later use.\n(§11) • (1) The tissue homogenizer (TissueLyser II high-throughput tissue homogenizer, QIAGEN) was pre-cooled at −20° C. The hippocampal tissue was taken out from the −80° C. freezer. […]\n(§12) Based on the protein concentration determined in step (II), an appropriate amount of protein lysis buffer was added to adjust the protein concentration of each group to a suitable level. […]\n(§13) After the membrane transfer was completed, the PVDF membranes were blocked with non-fat milk at room temperature for 1 hour. […] The eluted PVDF membranes were scanned using an electrochemiluminescence (ECL) method with a contact-based non-destructive quantitative imaging instrument (E-blot) to give a western blot image. […]"}, "[8]": {"system": "insulin receptor isoform IR-A protein", "test": "Western blot of IR-A protein in hippocampus of GK rats", "details": "hippocampus of GK rats after 37 weeks of treatment (43 weeks old); FIG. 5", "protocol": "as §9, §10, §11, §12, §13"}}, "data": [{"smiles": "CC(C)C[C@@H](C(=O)Nc1ccn(C[C@@H](O)CO)n1)N1CC(Oc2ccccc2Cl)=CC1=O", "note": "[Dorzagliatin]", "values": [{"measurement": "normalized value of GluN2A band (gray value / GAPDH, mean±SEM)", "setting": "[1]", "result": "1.05±0.07"}, {"measurement": "fasting blood glucose levels vs GK rat-solvent group", "setting": "GK rats [2]", "result": "significantly lower than those of the GK rat-solvent group"}, {"measurement": "time spent in the original platform quadrant (mean±SEM)", "setting": "GK rats [3]; FIG. 2", "result": 20.1, "unit": "s"}, {"measurement": "swimming distance in the original platform quadrant (mean±SEM)", "setting": "GK rats [3]; FIG. 3", "result": 4.21, "unit": "m"}, {"measurement": "normalized value of GLUT1 band (gray value / GAPDH, mean±SEM)", "setting": "[4]", "result": "1.67±0.06"}, {"measurement": "normalized value of GluN2B band (gray value / GAPDH, mean±SEM)", "setting": "[5]", "result": "0.87±0.02"}, {"measurement": "normalized value of GLUT3 band (gray value / GAPDH, mean±SEM)", "setting": "[6]", "result": "1.22±0.13"}, {"measurement": "normalized value of IR-B protein band (gray value / GAPDH, mean±SEM)", "setting": "[7]", "result": "1.64±0.06"}, {"measurement": "normalized value of IR-A protein band (gray value / GAPDH, mean±SEM)", "setting": "[8]", "result": "1.46±0.08"}]}]}
